The results in this text go back to patent EP1324760B1 (Board of Regents of the University of Nebraska, priority 2000, dated 2002).

In brackets after ≈: the same amount, converted by molar mass. Like-named read-outs stand apart in the source and are kept apart here.

A short description of one series: partition coefficient. Format: physicochemical.
Series [1] can be described thus: aqueous solubility (concentration at saturation). Format: physicochemical. The conditions noted are these: water, read-out: Conc. at Saturation.

In the series “partition coefficient” (studies in the laboratory), `CN(CC(=O)O)C(=N)N.O` [creatine monohydrate, reference compound] showed a log partition coefficient (logP) of -1.82. In addition, in the series with MDCK monolayers (MDCK monolayers, 60-minute period, share of the amount added that crossed to the other side), the “flux over one hour” value is “approximately 10%”.
For `CCOC(=O)CN(C)C(=N)N` [Creatine Ethyl Ester, creatine ethyl ester], the logP in the series “partition coefficient” was -1.13. In addition, the solubility in series [1] was found to be 205.9 ± 1.5 mg/mL (≈ 1290 mM). Further, in the series with MDCK monolayers (MDCK), the “flux over one hour” value is reported as “approximately 20%”.
The compound `CN(CC(=O)OCc1ccccc1)C(=N)N` [Creatine Benzyl Ester, creatine benzyl ester] had a logP in “partition coefficient” of -0.975. Moreover, the solubility in series [1] stood at 89.26 ± 0.8 mg/mL (≈ 403 mM).

For orientation: logP means the decadic logarithm of the partition coefficient of the neutral form, usually between octanol and water. Low values mean a more hydrophilic compound, high ones a more lipophilic compound.
